#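 These data come from cells grown in 96-well plates and exposed to compound for 48 hours at five concentrations. The concentration for 50% growth inhibition is given as GI50. TGI: total growth inhibition.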
# Columns and labels:
# Test in all cases: NCI anticancer screen, dose series, 48 h
# [1] = test system: NCI-H226 lung
# [2] = test system: SF-539 CNS
# [3] = test system: UACC-257 melanoma
# [4] = test system: HCC-2998 colon
# [5] = test system: HOP-62 NSCLC
# [6] = test system: HCT-15 colon
# [7] = test system: RPMI-8226 leukemia
# [8] = test system: PC-3 prostate
# [9] = test system: DU-145 prostate
# [10] = test system: MDA-MB-231 breast
smiles,measurement,setting,value
COc1ccc(C2c3cc4c(cc3OC(O)(CO)C2C(=O)O)OCO4)cc1 (centres undefined) (tested in a mixture with another compound),TGI,[1],47.7 µM
same,TGI,[2],43.6 µM
same,TGI,[3],50.8 µM
same,TGI,[4],38.2 µM
same,TGI,[5],> 100 µM
same,TGI,[6],35.6 µM
same,TGI,[7],49.5 µM
CC(C)C1OC(=O)/C=C/C=C/C=C/C=C/C=C/CC(O)C(C)C(O)CC(O)CC(O)CC(O)CC(O)CC(O)CC(O)/C=C/C1C (centres undefined),TGI,[2],> 100 µM
same,TGI,[8],> 100 µM
same,TGI,[3],> 100 µM
same,TGI,[4],> 100 µM
same,TGI,[5],> 100 µM
same,TGI,[6],> 100 µM
same,TGI,[7],> 100 µM
CSCCC(NC(=O)OCc1ccccc1)P(=O)(O)c1ccccc1 (centres undefined),TGI,[1],> 100 µM
same,TGI,[8],> 100 µM
same,TGI,[3],> 100 µM
same,TGI,[4],> 100 µM
same,TGI,[9],> 100 µM
same,TGI,[5],> 100 µM
same,TGI,[6],> 100 µM
same,TGI,[7],> 100 µM
same,TGI,[10],> 100 µM
O=S(=O)(O)c1cc(N=[N+]([O-])c2cc(S(=O)(=O)O)c3ccccc3c2)cc2ccccc12,TGI,[1],> 100 µM
same,TGI,[2],60.2 µM
same,TGI,[8],> 100 µM
same,TGI,[3],> 100 µM
same,TGI,[4],> 100 µM
same,TGI,[9],40.1 µM
same,TGI,[5],> 100 µM
same,TGI,[6],> 100 µM
same,TGI,[7],> 100 µM
same,TGI,[10],> 100 µM
Nc1ccc(-c2nc3cc(F)ccc3s2)cc1CO,TGI,[1],0.409 µM
same,TGI,[2],46.7 µM
same,TGI,[8],> 76.1 µM
same,TGI,[3],> 100 µM
same,TGI,[4],6.17 µM
same,TGI,[9],> 100 µM
same,TGI,[5],52.1 µM
same,TGI,[6],> 100 µM
same,TGI,[7],> 100 µM
same,TGI,[10],> 70 µM
CC(=O)Oc1ccc(CO)cc1OC(C)=O,TGI,[1],> 100 µM
same,TGI,[3],> 100 µM
same,TGI,[5],> 100 µM
same,TGI,[6],> 100 µM
same,TGI,[7],> 100 µM
COc1ccc(C(=O)N(C(=O)N2CCN(c3ccccc3)CC2)S(=O)(=O)c2ccccc2)cc1,TGI,[1],58.8 µM
same,TGI,[2],35.9 µM
same,TGI,[8],> 100 µM
same,TGI,[3],> 100 µM
same,TGI,[4],> 100 µM
same,TGI,[9],72.2 µM
same,TGI,[5],> 100 µM
same,TGI,[6],> 100 µM
same,TGI,[10],81.9 µM
COC(OC)C1OC(CO)C(n2cc(F)c(=O)[nH]c2=O)C1O (centres undefined),TGI,[1],> 100 µM
same,TGI,[2],> 100 µM
same,TGI,[8],> 100 µM
same,TGI,[3],> 100 µM
same,TGI,[4],> 100 µM
same,TGI,[9],64.4 µM
same,TGI,[5],> 100 µM
same,TGI,[6],> 100 µM
same,TGI,[7],> 100 µM
same,TGI,[10],> 100 µM
Cc1cnoc1NS(=O)(=O)c1ccc(Nc2nnc(/C=C/c3c(O)ccc4ccccc34)c(=O)n2N)cc1,TGI,[9],> 100 µM
same,TGI,[5],> 100 µM
same,TGI,[6],61.5 µM
same,TGI,[7],71.6 µM
COC1CC(CC2CCC(C)C(C(C)C(=O)O)O2)OC2(OC(C)(C3CCC(C)(C4OC(C5OC(O)(CO)C(C)CC5C)CC4C)O3)CC2C)C1C (centres undefined),TGI,[1],21.3 µM
same,TGI,[2],10.3 µM
same,TGI,[8],49 µM
same,TGI,[3],4.07 µM
same,TGI,[4],11.5 µM
same,TGI,[9],> 100 µM
same,TGI,[5],19.6 µM
same,TGI,[6],29.1 µM
same,TGI,[7],8.39 µM
same,TGI,[10],46 µM
COC(=S)OC1CC(n2cnc3c(N)ncnc32)OC1CO[Si](C)(C)C(C)(C)C (centres undefined),TGI,[1],59.2 µM
same,TGI,[8],44.1 µM
same,TGI,[3],72.8 µM
same,TGI,[9],38.5 µM
same,TGI,[5],32.8 µM
same,TGI,[6],49.8 µM
same,TGI,[7],> 100 µM
same,TGI,[10],39.9 µM
COc1cc2c(cc1C)NC(=O)/C2=C/c1c(Cl)n(-c2ccccc2)c2ccccc12,TGI,[2],24.3 µM
same,TGI,[8],> 100 µM
same,TGI,[3],61.7 µM
same,TGI,[4],24.2 µM
same,TGI,[9],> 100 µM
same,TGI,[5],63.7 µM
same,TGI,[6],67.3 µM
same,TGI,[7],52.8 µM
same,TGI,[10],> 100 µM
NC(=S)N1N=C(c2ccccc2O)CC1c1ccccc1 (centres undefined),TGI,[1],53.8 µM
same,TGI,[2],36.1 µM
same,TGI,[8],22.8 µM
same,TGI,[3],39.1 µM
same,TGI,[4],27.3 µM
same,TGI,[9],81.3 µM
same,TGI,[5],25.5 µM
same,TGI,[6],39 µM
same,TGI,[7],39.3 µM
CCCN1C(=O)CSC1=Nc1ccc2cc3ccc(N=C4SCC(=O)N4CCC)cc3nc2c1,GI50,[1],16.5 µM
same,TGI,[1],> 100 µM
same,GI50,[2],59.2 µM
same,TGI,[2],> 100 µM
same,GI50,[8],78.1 µM
same,TGI,[8],> 100 µM
same,GI50,[3],> 100 µM
same,TGI,[3],> 100 µM
same,GI50,[4],> 100 µM
same,TGI,[4],> 100 µM
same,GI50,[9],30.8 µM
same,TGI,[9],> 100 µM
same,GI50,[6],> 100 µM
same,TGI,[6],> 100 µM
same,GI50,[7],7.4 µM
same,TGI,[7],> 100 µM
same,GI50,[10],25.1 µM
same,TGI,[10],> 100 µM
COc1cc2c(cc1OCCCCCCCCN1C(=O)c3cccc4cccc(c34)C1=O)N=C[C@@H]1CCCN1C2=O,TGI,[1],46.8 µM
same,TGI,[2],13.2 µM
same,TGI,[8],27.6 µM
same,TGI,[3],68.8 µM
same,TGI,[4],30.7 µM
same,TGI,[9],> 100 µM
same,TGI,[5],> 100 µM
same,TGI,[6],32.7 µM
same,TGI,[7],8.53 µM
same,TGI,[10],34 µM
N#Cc1c(N)nc2c(c1-c1ccc(Br)cc1)CSc1ccccc1-2,TGI,[1],85.6 µM
same,TGI,[2],> 100 µM
same,TGI,[8],86.5 µM
same,TGI,[3],72.5 µM
same,TGI,[9],> 100 µM
same,TGI,[5],> 100 µM
same,TGI,[6],> 100 µM
same,TGI,[7],61.1 µM
same,TGI,[10],51.6 µM

# — PubChem BioAssay (NCI)
